Data from patent US7348152B2, “Rhamnose binding protein” (Solbec Pharmaceutical Limited, priority 2002, dated 2008).
pKd: −log10 of the molar value.

Key:
A2058 cells [1] = assay: Co-administration of BEC® and rhamnose, cell survival; assay type: cell-based; settings: 5 mM rhamnose, 5000 cells, 5 minutes and 4 days
Method: A2058 cells at two different cell densities were treated with BEC® +/−rhamnose and cell survival was monitored after 4 days. The treatments comprised: (i) BEC® only for 4 days (ii) BEC® only for 5 minutes (iii) BEC® and 5 mM rhamnose for 4 days and (iv) BEC® and 5 mM rhamnose for 5 minutes.

A2058 cells [2] = assay: Staining of cells with fluorescein tagged rhamnose probe (FRITC); assay type: cell-based
Method: A2058 cells were coated at low density in a microscope compatible chamber. The cells were washed with HBS^2+ then incubated with FRITC (top concentration of DMSO=2.5%) for 5-15 min at 37° C. The FRITC was removed, the cells washed twice with HBS^2+ and examined under a visible light microscope. The incubation was repeated with 0-100 μM fluorescein-amine, and for 25 and 6 μM FRITC using a 10^3× excess of unlabelled rhamnose.
A fluorescein tagged rhamnose probe (FRITC) was prepared as previously described and used to stain A2058 cells.
FRITC at concentrations from 3-25 μM was incubated with A2058 cells for 15 minutes at 37° C.

RBP bearing cells = assay: Cell adhesion between RBP bearing cells; assay type: cell-based; settings: RBP binds ligand
[3] = tested on: rhamnose binding protein (RBP); assay: Dissociation constant of the receptor estimated from the cytotoxicity functions; settings: read-out: dissociation constant of RBP when bound to the rhamnose moiety of solamargine
Method: Given that the evaluation of the cytotoxicities for different cell lines needed to be conducted using different sized cell populations, it was considered prudent to determine the effect, if any, of cell number on the measured value of LD50. Five cell lines, HT-29, LS174-T, 5637, A431 and MCF-7 were evaluated at four different seeding cell densities. Hs578T and CCD 18Lu were evaluated at three seeding densities and Hs578Bst, both early and late passage cells, were evaluated at two seeding densities.
In order that the full range of cell densities be evaluated with at least one cell line, a 3-day version of the cytotoxicity was developed. The cell lines involved were recalibtrated for the 3-day format. Multiwell plates were seeded on day 1. Cells were treated with BEC® on day 2 and MTT was added twenty four hours later.
Comparing the two fitted functions, two distinct regions are discernable (FIG. 8). […] We estimate that the dissociation constant for this receptor is likely to be of the order of 1.5×10^−6 M.

For `C[C@H](O)[C@H](O)[C@@H](O)[C@@H](O)C=O` [rhamnose], the “rhamnose competition with BEC® uptake (protective effect)” value (A2058 cells [1]) was “affects the amount of BEC® taken up by the cells”, the “inhibition of FRITC staining” value (A2058 cells [2]; co-incubation with free rhamnose at 10 mM) was “staining could be inhibited” and the “cell adhesion of RBP bearing cells” value (RBP bearing cells) was “inhibited”.
`C[C@@H]1CC[C@@]2(NC1)O[C@H]1C[C@H]3[C@@H]4CC=C5C[C@@H](O[C@@H]6O[C@H](CO)[C@@H](O[C@@H]7O[C@@H](C)[C@H](O)[C@@H](O)[C@H]7O)[C@H](O)[C@H]6O[C@@H]6O[C@@H](C)[C@H](O)[C@@H](O)[C@H]6O)CC[C@]5(C)[C@H]4CC[C@]3(C)[C@H]1[C@@H]2C` [solamargine] showed a pKd [3] of about 5.82.
In the case of Fluorescein Rhamnose-ITC [FRITC], the “fluorescent staining of cells” value (A2058 cells [2]; FRITC 3-25 μM, 15 minutes at 37° C.) was “found to fluoresce”.
